In ChEMBL document CHEMBL1147531, “Farnesyloxycoumarins, a new class of squalene-hopene cyclase inhibitors” (Bioorg Med Chem Lett, 2004) one finds inhibition and IC50 data, which are given here for 19 molecules.

As a reminder, the inhibition is the change of the read-out against control, counted positive when it falls. A low value points to a weak effect. The IC50 is the concentration needed to halve the response being measured. A lower IC50 goes with greater potency in that assay.

The target of one assay is T1, Squalene--hopene cyclase (Alicyclobacillus acidocaldarius subsp. acidocaldarius (strain ATCC27009 / DSM 446 / 104-1A) (Bacillus acidocaldarius)) (UniProt P33247).
T1 sequence (whole entry): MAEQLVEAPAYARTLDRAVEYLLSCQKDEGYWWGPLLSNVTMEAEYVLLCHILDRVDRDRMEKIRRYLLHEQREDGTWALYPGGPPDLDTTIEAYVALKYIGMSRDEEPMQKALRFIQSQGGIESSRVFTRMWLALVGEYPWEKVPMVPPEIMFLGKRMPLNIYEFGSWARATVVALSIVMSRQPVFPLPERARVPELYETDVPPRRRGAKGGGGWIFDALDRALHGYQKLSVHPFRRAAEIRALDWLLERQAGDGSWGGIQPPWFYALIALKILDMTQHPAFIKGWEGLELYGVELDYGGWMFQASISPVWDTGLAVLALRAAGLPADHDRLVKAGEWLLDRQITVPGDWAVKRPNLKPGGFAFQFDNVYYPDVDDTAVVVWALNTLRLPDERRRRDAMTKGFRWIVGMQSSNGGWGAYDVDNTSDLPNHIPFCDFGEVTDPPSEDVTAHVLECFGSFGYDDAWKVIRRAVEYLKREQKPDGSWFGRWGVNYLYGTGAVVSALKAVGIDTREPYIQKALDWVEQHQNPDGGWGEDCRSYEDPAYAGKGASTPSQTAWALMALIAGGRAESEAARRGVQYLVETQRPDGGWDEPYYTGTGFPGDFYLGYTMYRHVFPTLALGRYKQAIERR
The assay can be described thus: Inhibitory activity against squalene hopene cyclase from Alicyclobacillus acidocaldarius expressed in Escherichia coli at a concentration of 100 uM.
`CC(=O)Oc1cc2ccc(=O)oc2cc1OC/C=C(\C)CCC1OC1(C)CCC1OC1(C)C` (centres undefined) had an inhibition of 7%. `C/C(=C\COc1cc(=O)oc2ccccc12)CC/C=C(\C)CCC1OC1(C)C` (centres undefined) displayed an inhibition of 40%. Take `CC(=O)Oc1cc2ccc(=O)oc2cc1OC/C=C(\C)CC/C=C(\C)CCC1OC1(C)C` (centres undefined): the inhibition worked out at 46%.

The target of another assay is T1, Squalene--hopene cyclase (Alicyclobacillus acidocaldarius subsp. acidocaldarius (strain ATCC27009 / DSM 446 / 104-1A) (Bacillus acidocaldarius)). The assay can be described thus: IInhibitory activity against squalene hopene cyclase from Alicyclobacillus acidocaldarius expressed in Escherichia coli at a concentration of 100 uM.
`CC(=O)Oc1ccc2c(OC(C)=O)c(C/C=C(\C)CCC3OC3(C)CCC3OC3(C)C)c(=O)oc2c1` (centres undefined) displayed an inhibition of 38%.

A further assay concerns the target T2, Squalene--hopene cyclase (Alicyclobacillus acidocaldarius subsp. acidocaldarius (strain ATCC27009 / DSM 446 / 104-1A) (Bacillus acidocaldarius), UniProt P33247).
T2 sequence (P33247 whole entry): T1 sequence (whole entry)
Kind of assay: Inhibitory activity against squalene hopene cyclase from Alicyclobacillus acidocaldarius expressed in Escherichia coli.
In the case of `C/C(=C\COc1ccc2ccc(=O)oc2c1)CC/C=C(\C)CCC(O)C(C)(C)O` (centres undefined), the IC50 was determined as 65 µM. Same read-out and setting: the result for `C/C(=C\COc1cc2oc(=O)ccc2cc1O)CC/C=C(\C)CCC1OC1(C)C` (centres undefined) reads 67 µM; that for `CC(=O)Oc1ccc2c(OC(C)=O)c(C/C=C(\C)CC/C=C(\C)CCC3OC3(C)C)c(=O)oc2c1` (centres undefined), 100 µM; that for `CC(C)=CCC/C(C)=C/CC/C(C)=C/COc1ccc2ccc(=O)oc2c1` [UMBELLIPRENIN], 70 µM. Still for that read-out and setting: the result for `C/C(=C\COc1ccc2ccc(=O)oc2c1)CC[C@H]1C2(C)CC[C@@H](O2)C1(C)C` (single isomer, unassigned) [FARNESIFEROL C] reads 7 µM; that for `C/C(=C\COc1ccc2ccc(=O)oc2c1)CCC1OC1(C)CCC1OC1(C)C` (centres undefined), 1.5 µM; that for `CC(C)=CCC/C(C)=C/CC/C(C)=C/Cc1c(O)c2ccccc2oc1=O`, 90 µM.

Turning to `C/C(=C\COc1ccc2ccc(=O)oc2c1)CC/C=C(\C)CCC1OC1(C)C` (centres undefined), the IC50 turned out to be 2.5 µM.

The target in the next assay is T2, Squalene--hopene cyclase. Kind of assay: Inhibitory activity against squalene hopene cyclase from Alicyclobacillus acidocaldarius expressed in Escherichia coli at a concentration of 100 uM; n.a. = not active.
As for `C=C1CC[C@@H]2C(C)(C)[C@H](O)CC[C@@]2(C)[C@@H]1COc1ccc2ccc(=O)oc2c1`, the IC50 entry is on record as “Not Active”. On the same count and under the same terms, the result for `CC(C)=CCC/C(C)=C/CC/C(C)=C/COc1cc(=O)oc2ccccc12` reads “Not Active”. As for `CC(C)=CCC/C(C)=C/CC/C(C)=C/Cc1c(O)oc2cc(O)ccc2c1=O`, the IC50 result is recorded as “Not Active”. The same measure, in the same setting: the result for `CC(=O)O[C@H]1CC[C@]2(C)[C@H](CC[C@](C)(O)[C@H]2COc2ccc3ccc(=O)oc3c2)C1(C)C` reads “Not Active”; that for `C=C1CC[C@@H]2C(C)(C)C(=O)CC[C@@]2(C)[C@@H]1COc1ccc2ccc(=O)oc2c1`, “Not Active”. Consider `CC1(C)[C@H]2CC[C@](C)(O)[C@@H](COc3ccc4ccc(=O)oc4c3)[C@]2(C)CC[C@@H]1O`, for which the half-inhibitory concentration (IC50) result is reported as “Not Active”. Same read-out and setting: the same measure for `CC1(C)C(=O)CC[C@]2(C)[C@@H]1CC[C@](C)(O)[C@H]2COc1ccc2ccc(=O)oc2c1`: “Not Active”.
